Results published in US9402878B2, “Depsipeptide and uses thereof” (priority 2012, dated 2016).
In brackets after ≈: the same amount, converted by molar mass. Where two headings read alike, the source gives them in different places.

Experiments:
[1] = tested on: Bacillus anthracis; assay type: cell-based
[2] = target: CYP2D6 (Homo sapiens (Human), UniProt P10635); experiment: in vitro; conditions: liver microsomes, pH 7.4
[3] = tested on: Staphylococcus aureus MRSA; experiment: MIC against contemporary clinical isolates
[4] = tested on: Enterococcus faecium; experiment: MIC against contemporary clinical isolates
[5] = tested on: Staphylococcus aureus Daptomycin^NS; experiment: MIC against contemporary clinical isolates; conditions: Daptomycin^NS (n = 5)
[6] = tested on: Staphylococcus aureus MSSA; experiment: MIC against contemporary clinical isolates
[7] = tested on: S. aureus MRSA ATCC 33591; experiment: Mouse septicemia protection assay; assay type: in vivo; conditions: CD-1 female mice, IV, QD single dose one hour post infection, survival after 48 hrs
Description: CD-1 female mice were infected with 0.5 mL of bacterial suspension (3.28×10^7 CFU/mouse) via intraperitoneal injection, a concentration that achieves at least 90% mortality within 48 hours after infection. At one hour post infection, mice were treated with the compound intravenously with single doses and the results are shown in Table 12.

[8] = tested on: Enterococcus faecalis; experiment: MIC against contemporary clinical isolates
[9] = tested on: Staphylococcus aureus Linezolid^R; experiment: MIC against contemporary clinical isolates; conditions: Linezolid^R (n = 5)
[10] = tested on: Streptococcus pyogenes; experiment: MIC against contemporary clinical isolates
[11] = tested on: Staphylococcus epidermidis; experiment: MIC against contemporary clinical isolates
[12] = tested on: Viridans Group Streptococci; experiment: MIC against contemporary clinical isolates; conditions: n = 5
[13] = tested on: Staphylococcus aureus VISA; experiment: MIC against contemporary clinical isolates
[14] = tested on: Streptococcus pneumoniae; experiment: MIC against contemporary clinical isolates
[15] = tested on: Streptococcus agalactiae; experiment: MIC against contemporary clinical isolates
[16] = n = 20, 28.6% PSSP, 33.3% PISP, 38.1% PRSP

CYP2D6, sequence (P10635 whole entry, looked up): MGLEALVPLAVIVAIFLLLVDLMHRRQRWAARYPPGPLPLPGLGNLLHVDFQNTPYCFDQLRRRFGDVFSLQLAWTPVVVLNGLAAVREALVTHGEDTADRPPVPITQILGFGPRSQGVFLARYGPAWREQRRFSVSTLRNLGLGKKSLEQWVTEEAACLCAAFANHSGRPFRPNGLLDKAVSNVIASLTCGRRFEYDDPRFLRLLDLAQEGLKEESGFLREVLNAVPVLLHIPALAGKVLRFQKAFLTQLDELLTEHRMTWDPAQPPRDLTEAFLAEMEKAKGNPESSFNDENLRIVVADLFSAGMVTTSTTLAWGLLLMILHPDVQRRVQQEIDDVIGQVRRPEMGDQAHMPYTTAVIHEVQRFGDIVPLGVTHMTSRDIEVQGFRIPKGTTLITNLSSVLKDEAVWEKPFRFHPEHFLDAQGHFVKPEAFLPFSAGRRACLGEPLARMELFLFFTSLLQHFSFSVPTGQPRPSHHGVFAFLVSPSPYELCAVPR

C[C@H]1c2cccc(O)c2C(=O)C2=C(O)[C@]3(O)C(=O)C(C(N)=O)=C(O)[C@@H](N(C)C)[C@@H]3[C@@H](O)[C@@H]21 [Doxycycline]
MIC ([1]; B. anthracis NR-36): 0.06 µg/mL (≈ 0.135 µM) | MIC ([1]; B. anthracis NR-38): 0.125 µg/mL (≈ 0.281 µM) | MIC ([1]; B. anthracis NR-41): 0.06 µg/mL (≈ 0.135 µM) | MIC ([1]; B. anthracis NR-46): 0.125 µg/mL (≈ 0.281 µM) | MIC ([1]; B. anthracis NR-411): 0.125 µg/mL (≈ 0.281 µM) | MIC ([1]; B. anthracis NR-412): 0.03 µg/mL (≈ 0.0675 µM) | MIC ([1]; B. anthracis NR-413): 0.06 µg/mL (≈ 0.135 µM) | MIC ([1]; B. anthracis NR-414): 0.125 µg/mL (≈ 0.281 µM) | MIC ([1]; B. anthracis NR-415): 0.06 µg/mL (≈ 0.135 µM) | MIC ([1]; B. anthracis NR-3838): 0.06 µg/mL (≈ 0.135 µM)

C=C[C@H]1C[N@@]2CC[C@H]1C[C@@H]2[C@@H](O)c1ccnc2ccc(OC)cc12 [Quinidine]
inhibition at 10 min, 0.1 µM [2]: 60.6% | inhibition at 10 min, 1 µM [2]: 91.7%

CN[C@H](CC(C)C)C(=O)N[C@H]1C(=O)N[C@@H](CC(N)=O)C(=O)N[C@H]2C(=O)N[C@H]3C(=O)N[C@H](C(=O)N[C@H](C(=O)O)c4cc(O)cc(O)c4-c4cc3ccc4O)[C@H](O)c3ccc(c(Cl)c3)Oc3cc2cc(c3O[C@@H]2O[C@H](CO)[C@@H](O)[C@H](O)[C@H]2O[C@H]2C[C@](C)(N)[C@H](O)[C@H](C)O2)Oc2ccc(cc2Cl)[C@H]1O [Vancomycin]
% S (CLSI % susceptible) ([3]; MRSA (n = 20)): 100.0% | MIC Range ([3]; MRSA (n = 20)): 0.5-2^ μg/mL | MIC50 ([3]; Staphylococcus aureus, MRSA): 0.5 µg/mL (≈ 0.345 µM) | MIC90 ([3]; Staphylococcus aureus, MRSA): 1 µg/mL (≈ 0.69 µM) | MIC50 [4]: 0.5 µg/mL (≈ 0.345 µM) | MIC90 [4]: > 32 µg/mL | % S (CLSI % susceptible) ([4]; n = 10, 50% VRE): 50.0% | % S (CLSI % susceptible) [5]: 40.0% | MIC Range [5]: 0.5-8^ μg/mL | % S (CLSI % susceptible) ([6]; MSSA (n = 20)): 100.0% | MIC Range ([6]; MSSA (n = 20)): 0.5-1^ μg/mL | MIC50 ([6]; Staphylococcus aureus, MSSA): 0.5 µg/mL (≈ 0.345 µM) | MIC90 ([6]; Staphylococcus aureus, MSSA): 1 µg/mL (≈ 0.69 µM) | PD50 [7]: ~2.75 mg/kg | PD50 ([7]; listed as vancomycin): ~2.75 mg/kg | MIC50 [8]: 1 µg/mL (≈ 0.69 µM) | MIC90 [8]: > 32 µg/mL | % S (CLSI % susceptible) ([8]; n = 10, 50% VRE): 50.0% | % S (CLSI % susceptible) [9]: 100.0% | MIC Range [9]: 1 µg/mL (≈ 0.69 µM) | MIC50 ([10]; Streptococcus pyogenes): 0.25 µg/mL (≈ 0.173 µM) | MIC90 ([10]; Streptococcus pyogenes): 0.25 µg/mL (≈ 0.173 µM) | % S (CLSI % susceptible) ([10]; n = 10): 100.0% | MIC Range ([10]; n = 10): 0.25 µg/mL (≈ 0.173 µM) | MIC50 ([11]; Staphylococcus epidermidis): 2 µg/mL (≈ 1.38 µM) | MIC90 ([11]; Staphylococcus epidermidis): 2 µg/mL (≈ 1.38 µM) | % S (CLSI % susceptible) ([11]; n = 20): 100.0% | MIC Range ([11]; n = 20): 1 to 2 µg/mL | % S (CLSI % susceptible) [12]: 100.0% | MIC Range [12]: 0.25 to 0.5 µg/mL | MIC50 ([13]; Staphylococcus aureus, VISA): 4 µg/mL (≈ 2.76 µM) | MIC90 ([13]; Staphylococcus aureus, VISA): 8 µg/mL (≈ 5.52 µM) | % S (CLSI % susceptible) ([13]; VISA (n = 10)): 10.0% | MIC Range ([13]; VISA (n = 10)): 1 to 8 µg/mL | MIC50 ([14]; Streptococcus pneumoniae, PRSP): 0.25 µg/mL (≈ 0.173 µM) | MIC90 ([14]; Streptococcus pneumoniae, PRSP): 0.25 µg/mL (≈ 0.173 µM) | % S (CLSI % susceptible) [14, 16]: 100.0% | MIC Range [14, 16]: 0.12 to 0.5 µg/mL | MIC50 ([15]; Streptococcus agalactiae): 0.5 µg/mL (≈ 0.345 µM) | MIC90 ([15]; Streptococcus agalactiae): 0.5 µg/mL (≈ 0.345 µM) | % S (CLSI % susceptible) ([15]; n = 10): 100.0% | MIC Range ([15]; n = 10): 0.25 to 0.5 µg/mL
